Drawing on US20250101041A1, “POSITIVE ALLOSTERIC MODULATORS OF THE MUSCARINIC ACETYLCHOLINE RECEPTOR M4” (Vanderbilt University, priority 2022, published 2025), this text covers Emax and EC50 for 19 compounds.

The assay has as its target T1, human mAChR M4 (Homo sapiens, UniProt P08173).
T1 construct: expressed in transfected cells; host or cells: CHO-K1 (American Type Culture Collection), stably expressing hM4 and Gqi5
T1 sequence (P08173 1-479): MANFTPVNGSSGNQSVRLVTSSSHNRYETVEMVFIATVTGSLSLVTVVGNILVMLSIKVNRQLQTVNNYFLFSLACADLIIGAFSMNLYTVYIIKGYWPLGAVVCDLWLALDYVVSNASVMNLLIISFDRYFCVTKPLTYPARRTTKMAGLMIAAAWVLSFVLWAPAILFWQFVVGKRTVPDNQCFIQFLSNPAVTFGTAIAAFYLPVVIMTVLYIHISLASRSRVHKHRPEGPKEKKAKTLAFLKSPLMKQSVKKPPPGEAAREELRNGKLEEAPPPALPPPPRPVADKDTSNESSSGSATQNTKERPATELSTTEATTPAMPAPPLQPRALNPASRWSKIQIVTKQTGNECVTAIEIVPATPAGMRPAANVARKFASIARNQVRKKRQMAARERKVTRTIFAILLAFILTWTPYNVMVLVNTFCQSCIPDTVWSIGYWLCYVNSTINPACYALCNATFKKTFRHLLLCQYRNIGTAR
As to the kind of experiment: mAChR M4 cell-based functional assay: calcium mobilization (Fluo-4, FDSS), potentiation of EC20 acetylcholine response in hM4-Gqi5 CHO-K1 cells. The conditions noted are these: human M4; for Emax at 30 µM: CHO-K1, % ACh maximum at 30 μM; for EC50: potentiation of EC20 acetylcholine response, calcium mobilization. As for the experimental part: Human and rat M4 cDNAs, along with the chimeric G protein Gqi5, were transfected into Chinese hamster ovary (CHO-K1) cells purchased from the American Type Culture Collection using Lipofectamine2000. hM4-Gqi5 cells were grown in Ham's F-12 medium containing 10% heat-inactivated fetal bovine serum (FBS), 20 mM HEPES, 50 μg/mL G418 sulfate, and 500 μg/mL Hygromycin B. rM4-Gqi5 cells were grown in DMEM containing 10% heat-inactivated FBS, 20 mM HEPES, 400 μg/mL G418 sulfate, and 500 μg/mL Hygromycin B.
For high throughput measurement of agonist-evoked increases in intracellular calcium, CHO-K1 cells stably expressing muscarinic receptors were plated in growth medium lacking G418 and hygromycin at 15,000 cells/20 μL/well in Greiner 384-well black-walled, tissue culture (TC)-treated, clear-bottom plates (VWR). Cells were incubated overnight at 37° C. and 5% CO2. The next day, cells were washed using an ELX 405 (BioTek) with assay buffer; the final volume was then aspirated to 20 μL. Next, 20 μL of a […] of Fluo-4/acetoxymethyl ester (Invitrogen, Carlsbad, CA), prepared as a 2.3 mM stock in DMSO and mixed in a 1:1 ratio with 10% (w/v) Pluronic F-127 and diluted in assay buffer, was added to the wells and the cell plates were incubated for 50 min at 37° C. and 5% CO2. Dye was removed by washing with the ELX 405 and the final volume was aspirated to 20 μL. Compound master plates were formatted in an 11 point concentration-response curve (CRC) format (1:3 dilutions) in 100% DMSO with a starting concentration of 10 mM using a BRAVO liquid handler (Agilent). Test compound CRCs were then transferred to daughter plates (240 nL) using the Echo acoustic plate reformatter (Labcyte, Sunnyvale, CA) and then diluted into assay buffer (40 μL) to a 2× stock using a Thermo Fisher Combi (Thermo Fisher Scientific, Waltham, MA).
Calcium flux was measured using the Functional Drug Screening System (FDSS) 6000 or 7000 (Hamamatsu Corporation, Tokyo, Japan) as an increase in the fluorescent static ratio. Compounds were applied to cells (20 μL, 2X) using the automated system of the FDSS at 2-4 seconds into the protocol and the data were collected at 1 Hz. At 144 seconds, 10 μL of an EC20 concentration of the muscarinic receptor agonist acetylcholine was added (5×), followed by the addition of 12 μL of an […] concentration of acetylcholine at the 230 second time point (5×). Agonist activity was analyzed as a concentration-dependent increase in calcium mobilization upon compound addition. Positive allosteric modulator activity was analyzed as a concentration-dependent increase in the EC20 acetylcholine response. Antagonist activity was analyzed as a concentration-dependent decrease in the EC20 acetylcholine response. Concentration-response curves were generated using a four-parameter logistical equation in XLFit curve fitting software (IDBS, Bridgewater, NJ) for Excel (Microsoft, Redmond, WA) or Prism (GraphPad Software, Inc., San Diego, CA).
Compounds were synthesized as described above. Activity (EC50 and Emax) was determined in the mAChR M4 cell-based functional assay as described above and the data are shown in Table 4. The compound number corresponds to the compound numbers used in Tables 1-3.
(In general: A change in cytosolic calcium serves as a functional read-out for many receptors and channels.)

The Emax is the size of the effect at its maximum, as opposed to the concentration needed. Usually EC50 stands for the concentration that produces a half-maximal response.

For `COCc1cc(=O)n2nc(N3CCc4ncc(-c5ccc(OC(F)F)nc5)cc4C3)c(C)c(C)c2n1` [Compound 1-373, 7-(3-(6-(difluoromethoxy)pyridin-3-yl)-7,8-dihydro-1,6-naphthyridin-6(5H)-yl)-2-(methoxymethyl)-8,9-dimethyl-4H-pyrimido[1,2-b]pyridazin-4-one], the Emax at 30 µM was found to be 64% and the EC50 is 299 nM.

Consider `Cc1ccncc1-c1cnc2c(c1)CN(c1nn3c(=O)ccnc3cc1C)CC2` [Compound 1-403, 8-methyl-7-(3-(4-methylpyridin-3-yl)-7,8-dihydro-1,6-naphthyridin-6(5H)-yl)-4H-pyrimido[1,2-b] pyridazin-4-one], for which the Emax at 30 µM came to 86% and the EC50 amounted to 112 nM. For `Cc1cc2nccc(=O)n2nc1N1CCc2ncc(-c3cnc(F)c(Cl)c3)cc2C1` [Compound 1-326, 7-(3-(5-chloro-6-fluoropyridin-3-yl)-7,8-dihydro-1,6-naphthyridin-6(5H)-yl)-8-methyl-4H-pyrimido[1,2-b]pyridazin-4-one], the Emax at 30 µM worked out at 49% and the half-maximal effective concentration (EC50) was 1480 nM. For the compound `Cc1cc2nccc(=O)n2nc1N1CCc2ncc(NCC(C)C)cc2C1` [Compound 2-90, 7-(3-(isobutylamino)-7,8-dihydro-1,6-naphthyridin-6(5H)-yl)-8-methyl-4H-pyrimido[1,2-b]pyridazin-4-one], the Emax at 30 µM turned out to be 69% and the EC50 came out at 798 nM. With `Cc1cc2ncc(Cl)c(=O)n2nc1N1CCc2ncc(Nc3ccncc3F)cc2C1` [Compound 2-157, 3-chloro-7-(3-((3-fluoropyridin-4-yl)amino)-7,8-dihydro-1,6-naphthyridin-6(5H)-yl)-8-methyl-4H-pyrimido[1,2-b]pyridazin-4-one], the Emax at 30 µM is 90% and the 50% effective concentration (EC50) is 3 nM. With `Cc1c(N2CCc3ncc(N4CCCn5nccc54)cc3C2)nn2c(=O)cc(C(F)F)nc2c1C` [Compound 2-31, 2-(difluoromethyl)-7-(3-(6,7-dihydropyrazolo[1,5-a]pyrimidin-4(5H)-yl)-7,8-dihydro-1,6-naphthyridin-6(5H)-yl)-8,9-dimethyl-4H-pyrimido[1,2-b]pyridazin-4-one], the Emax at 30 µM was 91% and the half-maximal effective concentration (EC50) was 14 nM. Take `Cc1c(N2CCc3ncc(-c4ccc5nccn5c4)cc3C2)nn2c(=O)ccnc2c1C` [Compound 1-225, 7-(3-(imidazo[1,2-a]pyridin-6-yl)-7,8-dihydro-1,6-naphthyridin-6(5H)-yl)-8,9-dimethyl-4H-pyrimido[1,2-b]pyridazin-4-one]: the Emax at 30 µM is 66% and the EC50 was 232 nM.

For `Cc1cc2nccc(=O)n2nc1N1CCc2ncc(Nc3cccc(F)c3C)cc2C1` [Compound 2-94, 7-(3-((3-fluoro-2-methylphenyl)amino)-7,8-dihydro-1,6-naphthyridin-6(5H)-yl)-8-methyl-4H-pyrimido[1,2-b]pyridazin-4-one], the Emax at 30 µM turned out to be 84% and the 50% effective concentration (EC50) was 78 nM. As to `Cc1cc(=O)n2nc(N3CCc4ncc(-c5cc(F)ccc5C)cc4C3)c(C)c(C)c2n1` [Compound 1-138, 7-(3-(5-fluoro-2-methylphenyl)-7,8-dihydro-1,6-naphthyridin-6(5H)-yl)-2,8,9-trimethyl-4H-pyrimido[1,2-b]pyridazin-4-one], the Emax at 30 µM is 87% and the EC50 came to 190 nM.

On to `COc1cc(C)c(-c2cnc3c(c2)CN(c2nn4c(=O)cc(C)nc4c(C)c2C)CC3)cn1` [Compound 1-198, 7-(3-(6-methoxy-4-methylpyridin-3-yl)-7,8-dihydro-1,6-naphthyridin-6(5H)-yl)-2,8,9-trimethyl-4H-pyrimido[1,2-b]pyridazin-4-one], for which the Emax at 30 µM was determined as 83% and the EC50 was determined as 1920 nM. As for `Cc1cnccc1Nc1cnc2c(c1)CN(c1nn3c(=O)ccnc3cc1C)CC2` [Compound 2-102, 8-methyl-7-(3-((3-methylpyridin-4-yl)amino)-7,8-dihydro-1,6-naphthyridin-6(5H)-yl)-4H-pyrimido[1,2-b]pyridazin-4-one], the Emax at 30 µM was determined as 84% and the half-maximal effective concentration (EC50) worked out at 585 nM.

Turning to `Cc1c(N2CCc3ncc(C(F)(F)F)cc3C2)nn2c(=O)cc(C(C)C)nc2c1C` [Compound 1-107, 2-isopropyl-8,9-dimethyl-7-(3-(trifluoromethyl)-7,8-dihydro-1,6-naphthyridin-6(5H)-yl)-4H-pyrimido[1,2-b]pyridazin-4-one], the Emax at 30 µM is 102% and the half-maximal effective concentration (EC50) turned out to be 178 nM. For `Cc1cc2nccc(=O)n2nc1N1CCc2ncc(Nc3ccnnc3)cc2C1` [Compound 2-136, 8-methyl-7-(3-(pyridazin-4-ylamino)-7,8-dihydro-1,6-naphthyridin-6(5H)-yl)-4H-pyrimido[1,2-b]pyridazin-4-one], in that order: 101% and 308 nM. In the case of `Cc1cc2nc(C3CC3)cc(=O)n2nc1N1CCc2ncc(C(F)(F)F)cc2C1` [Compound 1-27, 2-cyclopropyl-8-methyl-7-(3-(trifluoromethyl)-7,8-dihydro-1,6-naphthyridin-6(5H)-yl)-4H-pyrimido[1,2-b]pyridazin-4-one], the Emax at 30 µM is 76% and the EC50 is 38 nM. For `COc1ccccc1Nc1cnc2c(c1)CN(c1nn3c(=O)ccnc3cc1C)CC2` [Compound 2-62, 7-(3-((2-methoxyphenyl)amino)-7,8-dihydro-1,6-naphthyridin-6(5H)-yl)-8-methyl-4H-pyrimido[1,2-b]pyridazin-4-one], in that order: 87% and 221 nM.

For `Cc1c(N2CCc3ncc(-c4cc(F)ncc4F)cc3C2)nn2c(=O)ccnc2c1C` [Compound 1-268, 7-(3-(2,5-difluoropyridin-4-yl)-7,8-dihydro-1,6-naphthyridin-6(5H)-yl)-8,9-dimethyl-4H-pyrimido[1,2-b]pyridazin-4-one], the Emax at 30 µM was 83% and the EC50 worked out at 230 nM. Turning to `Cc1c(N2CCc3ncc(-c4ccc(N(C)C)nc4)cc3C2)nn2c(=O)ccnc2c1C` [Compound 1-89, 7-(3-(6-(dimethylamino)pyridin-3-yl)-7,8-dihydro-1,6-naphthyridin-6(5H)-yl)-8,9-dimethyl-4H-pyrimido[1,2-b]pyridazin-4-one], the Emax at 30 µM worked out at 70% and the EC50 came out at 231 nM.

As to `Cc1c(N2CCc3ncc(P(C)(C)=O)cc3C2)nn2c(=O)ccnc2c1C` [Compound 3-5, 7-(3-(Dimethylphosphoryl)-7,8-dihydro-1,6-naphthyridin-6(5H)-yl)-8,9-dimethyl-4H-pyrimido[1,2-b]pyridazin-4-one], the Emax at 30 µM is 77%. In the case of `Cc1ccc(-c2cnc3c(c2)CN(c2nn4c(=O)cc(C)nc4c(C)c2C)CC3)cn1` [Compound 1-82, 2,8,9-trimethyl-7-(3-(6-methylpyridin-3-yl)-7,8-dihydro-1,6-naphthyridin-6(5H)-yl)-4H-pyrimido[1,2-b]pyridazin-4-one], the Emax at 30 µM came out at 100% and the EC50 was found to be 145 nM.
